We go through 31 compounds from patent publication US12209087B2, “AKT1 modulators” (Alterome Therapeutics, Inc., priority 2022, dated 2025).

A value given as a limit tells only on which side of the number the result lay.

T1 sequence (P31749 whole entry E17K): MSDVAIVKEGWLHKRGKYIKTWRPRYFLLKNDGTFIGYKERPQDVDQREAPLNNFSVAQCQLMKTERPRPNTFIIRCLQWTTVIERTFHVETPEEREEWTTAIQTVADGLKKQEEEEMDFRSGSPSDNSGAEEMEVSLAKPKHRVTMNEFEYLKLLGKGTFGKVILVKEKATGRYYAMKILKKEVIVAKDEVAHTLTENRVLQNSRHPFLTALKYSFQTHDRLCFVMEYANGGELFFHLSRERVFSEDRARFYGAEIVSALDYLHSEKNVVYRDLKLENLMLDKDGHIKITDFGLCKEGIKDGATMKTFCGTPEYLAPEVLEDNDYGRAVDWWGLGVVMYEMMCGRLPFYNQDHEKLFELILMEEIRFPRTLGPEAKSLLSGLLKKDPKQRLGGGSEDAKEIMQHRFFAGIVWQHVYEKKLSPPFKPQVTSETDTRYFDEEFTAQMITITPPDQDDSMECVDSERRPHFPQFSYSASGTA

This experiment addresses T1, full length AKT E17K (Homo sapiens, UniProt P31749, E17K).
T1 construct: host or cells: HEK-293 (ATCC CRL-1573)
As to the kind of experiment: NanoBRET Target Engagement (TE) Assay. The class given is cell-based. The note with it: competitive tracer displacement in living cells, read-out: AKT1 E17K IC50. Summed up: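 Compound and tracer incubated 2 h before luminescence at donor 450 nm and acceptor 600 nm, with extracellular signal inhibited. EC50 by sigmoidal variable-slope regression.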
A general note: BRET reads energy transfer from a luciferase to a nearby fluorophore.
As for `N#Cc1ccnc(NC2CCN(Cc3ccc(-n4c(-c5cccnc5N)nc5cccnc54)cc3)CC2)c1` [Example 75, 2-((1-(4-(2-(2-Aminopyridin-3-yl)-3H-imidazo[4,5-b]pyridin-3-yl)benzyl)piperidin-4-yl)amino)isonicotinonitrile], the IC50 – broadly, the concentration that inhibits the measured activity by half – was in the range of 600 to 10000 nM.

As for `N#Cc1cncc(NC2CCN(Cc3ccc(-n4c(-c5cccnc5N)nc5cccnc54)cc3)CC2)n1` [Example 76, 6-((1-(4-(2-(2-Aminopyridin-3-yl)-3H-imidazo[4,5-b]pyridin-3-yl)benzyl)piperidin-4-yl)amino)pyrazine-2-carbonitrile], the IC50 was 600 to 10000 nM.

In the case of `N#Cc1ccnc(NC2CCN(Cc3ccc(-n4c(-c5cccnc5N)nc5cccnc54)cc3)CC2)n1` [Example 77, 2-((1-(4-(2-(2-Aminopyridin-3-yl)-3H-imidazo[4,5-b]pyridin-3-yl)benzyl)piperidin-4-yl)amino)pyrimidine-4-carbonitrile], the IC50 lay in the range of 60 to 600 nM.

Take `N#Cc1cc(N2CCN(Cc3ccc(-n4c(-c5cccnc5N)nc5ccc(-c6ccccc6)nc54)cc3)CC2)ncn1` [Example 78, 6-(4-(4-(2-(2-Aminopyridin-3-yl)-5-phenyl-3H-imidazo[4,5-b]pyridin-3-yl)benzyl)piperazin-1-yl)pyrimidine-4-carbonitrile]: the half-maximal inhibitory concentration (IC50) is less than 15 nM.

For the compound `N#Cc1cncc(C(=O)N2CCN(Cc3ccc(-n4c(-c5cccnc5N)nc5cccnc54)cc3)CC2)c1` [Example 79, 5-(4-(4-(2-(2-Aminopyridin-3-yl)-3H-imidazo[4,5-b]pyridin-3-yl)benzyl)piperazine-1-carbonyl)nicotinonitrile], the half-maximal inhibitory concentration (IC50) lay within 600 to 10000 nM.

In the case of `N#Cc1ccc(C(=O)N2CCN(Cc3ccc(-n4c(-c5cccnc5N)nc5cccnc54)cc3)CC2)nc1` [Example 80, 6-(4-(4-(2-(2-Aminopyridin-3-yl)-3H-imidazo[4,5-b]pyridin-3-yl)benzyl)piperazine-1-carbonyl)nicotinonitrile], the IC50 is 600 to 10000 nM.

As to `N#Cc1ccc(C(=O)NC2CCN(Cc3ccc(-n4c(-c5cccnc5N)nc5ccc(-c6ccccc6)nc54)cc3)CC2)nc1` [Example 81, N-(1-(4-(2-(2-Aminopyridin-3-yl)-5-phenyl-3H-imidazo[4,5-b]pyridin-3-yl)benzyl)piperidin-4-yl)-5-cyanopicolinamide], the IC50 lay in the range of 60 to 600 nM.

In the case of `N#Cc1cc(N2CCN(Cc3ccc(-n4c(-c5cccnc5N)nc5ccc(-c6ccccc6)nc54)cc3)CC2)ccn1` [Example 82, 4-(4-(4-(2-(2-Aminopyridin-3-yl)-5-phenyl-3H-imidazo[4,5-b]pyridin-3-yl)benzyl)piperazin-1-yl)picolinonitrile], the IC50 is 15 to 60 nM.

For the compound `N#Cc1cccc(N2CCN(Cc3ccc(-n4c(-c5cccnc5N)nc5ccc(-c6ccccc6)nc54)cc3)CC2)n1` [Example 83, 6-(4-(4-(2-(2-Aminopyridin-3-yl)-5-phenyl-3H-imidazo[4,5-b]pyridin-3-yl)benzyl)piperazin-1-yl)picolinonitrile], the concentration for half-maximal inhibition (IC50) lay within 60 to 600 nM.

For `N#Cc1ccc(NC2CCN(Cc3ccc(-n4c(-c5cccnc5N)nc5ccc(-c6ccccc6)nc54)cc3)CC2)cn1` [Example 84, 5-((1-(4-(2-(2-Aminopyridin-3-yl)-5-phenyl-3H-imidazo[4,5-b]pyridin-3-yl)benzyl)piperidin-4-yl)amino)picolinonitrile], the IC50 was in the range of 15 to 60 nM.

Consider `N#Cc1cc(NC2CCN(Cc3ccc(-n4c(-c5cccnc5N)nc5ccc(-c6ccccc6)nc54)cc3)CC2)ccn1` [Example 85, 4-((1-(4-(2-(2-Aminopyridin-3-yl)-5-phenyl-3H-imidazo[4,5-b]pyridin-3-yl)benzyl)piperidin-4-yl)amino)picolinonitrile], for which the IC50 was less than 15 nM.

On to `N#Cc1cccc(NC2CCN(Cc3ccc(-n4c(-c5cccnc5N)nc5ccc(-c6ccccc6)nc54)cc3)CC2)n1` [Example 86, 6-((1-(4-(2-(2-Aminopyridin-3-yl)-5-phenyl-3H-imidazo[4,5-b]pyridin-3-yl)benzyl)piperidin-4-yl)amino)picolinonitrile], for which the IC50 fell in the range of 60 to 600 nM.

Take `N#Cc1ccnc(NC2CCN(Cc3ccc(-n4c(-c5cccnc5N)nc5ccc(-c6ccccc6)nc54)cc3)CC2)c1` [Example 87, 2-((1-(4-(2-(2-Aminopyridin-3-yl)-5-phenyl-3H-imidazo[4,5-b]pyridin-3-yl)benzyl)piperidin-4-yl)amino)isonicotinonitrile]: the IC50 lay within 60 to 600 nM.

As for `N#Cc1nccc(NC2CCN(Cc3ccc(-n4c(-c5cccnc5N)nc5ccc(-c6ccccc6)nc54)cc3)CC2)n1` [Example 88, 4-((1-(4-(2-(2-Aminopyridin-3-yl)-5-phenyl-3H-imidazo[4,5-b]pyridin-3-yl)benzyl)piperidin-4-yl)amino)pyrimidine-2-carbonitrile], the IC50 is less than 15 nM.

For `N#Cc1cncc(NC2CCN(Cc3ccc(-n4c(-c5cccnc5N)nc5ccc(-c6ccccc6)nc54)cc3)CC2)n1` [Example 89, 6-((1-(4-(2-(2-Aminopyridin-3-yl)-5-phenyl-3H-imidazo[4,5-b]pyridin-3-yl)benzyl)piperidin-4-yl)amino)pyrazine-2-carbonitrile], the IC50 is less than 15 nM.

For the compound `N#Cc1ccnc(NC2CCN(Cc3ccc(-n4c(-c5cccnc5N)nc5ccc(-c6ccccc6)nc54)cc3)CC2)n1` [Example 90, 2-((1-(4-(2-(2-Aminopyridin-3-yl)-5-phenyl-3H-imidazo[4,5-b]pyridin-3-yl)benzyl)piperidin-4-yl)amino)pyrimidine-4-carbonitrile], the IC50 was less than 15 nM.

Take `N#Cc1cc(NC2CCN(Cc3ccc(-n4c(-c5cccnc5N)nc5ccc(-c6ccccc6)nc54)cc3)CC2)ncn1` [Example 91, 6-((1-(4-(2-(2-Aminopyridin-3-yl)-5-phenyl-3H-imidazo[4,5-b]pyridin-3-yl)benzyl)piperidin-4-yl)amino)pyrimidine-4-carbonitrile]: the IC50 was less than 15 nM.

Regarding `N#Cc1nccc(NC2CCN(Cc3ccc(-n4c(-c5cccnc5N)nc5cccnc54)cc3)CC2)n1` [Example 92, 4-((1-(4-(2-(2-Aminopyridin-3-yl)-3H-imidazo[4,5-b]pyridin-3-yl)benzyl)piperidin-4-yl)amino)pyrimidine-2-carbonitrile], the half-inhibitory concentration (IC50) fell in the range of 15 to 60 nM.

For the compound `N#Cc1cncc(NC2CCN(Cc3ccc(-n4c(-c5cccnc5N)nc5ccc(-c6ccccc6)nc54)cc3)CC2)c1` [Example 93, 5-((1-(4-(2-(2-Aminopyridin-3-yl)-5-phenyl-3H-imidazo[4,5-b]pyridin-3-yl)benzyl)piperidin-4-yl)amino)nicotinonitrile], the IC50 lay within 60 to 600 nM.

Take `N#Cc1ccc(N2CCN(Cc3ccc(-n4c(-c5cccnc5N)nc5ccc(-c6ccccc6)nc54)cc3)CC2)cn1` [Example 94, 5-(4-(4-(2-(2-Aminopyridin-3-yl)-5-phenyl-3H-imidazo[4,5-b]pyridin-3-yl)benzyl)piperazin-1-yl)picolinonitrile]: the IC50 lay within 60 to 600 nM.

For `N#Cc1ncc(NCc2ccc(-n3c(-c4cccnc4N)nc4cccnc43)cc2)cn1` [Example 95, 5-((4-(2-(2-Aminopyridin-3-yl)-3H-imidazo[4,5-b]pyridin-3-yl)benzyl)amino)pyrimidine-2-carbonitrile], the IC50 lay in the range of 600 to 10000 nM.

As to `N#Cc1ncc(N2CCN(Cc3ccc(-n4c(-c5cccnc5N)nc5ccc(-c6ccccc6)nc54)cc3)CC2)cn1` [Example 97, 5-(4-(4-(2-(2-aminopyridin-3-yl)-5-phenyl-3H-imidazo[4,5-b]pyridin-3-yl)benzyl)piperazin-1-yl)pyrimidine-2-carbonitrile], the IC50 fell in the range of 15 to 60 nM.

`N#Cc1ncccc1C(=O)NCc1ccc(-n2c(-c3cccnc3N)nc3cccnc32)cc1` [Example 98, N-(4-(2-(2-Aminopyridin-3-yl)-3H-imidazo[4,5-b]pyridin-3-yl)benzyl)-2-cyanonicotinamide]: the IC50 is 600 to 10000 nM.

Take `N#Cc1cnccc1C(=O)NCc1ccc(-n2c(-c3cccnc3N)nc3cccnc32)cc1` [Example 99, N-(4-(2-(2-Aminopyridin-3-yl)-3H-imidazo[4,5-b]pyridin-3-yl)benzyl)-3-cyanoisonicotinamide]: the 50% inhibitory concentration (IC50) was in the range of 600 to 10000 nM.

Turning to `N#Cc1ccncc1C(=O)NCc1ccc(-n2c(-c3cccnc3N)nc3cccnc32)cc1` [Example 100, N-(4-(2-(2-Aminopyridin-3-yl)-3H-imidazo[4,5-b]pyridin-3-yl)benzyl)-4-cyanonicotinamide], the IC50 lay within 600 to 10000 nM.

In the case of `N#Cc1cccnc1C(=O)NCc1ccc(-n2c(-c3cccnc3N)nc3cccnc32)cc1` [Example 101, N-(4-(2-(2-Aminopyridin-3-yl)-3H-imidazo[4,5-b]pyridin-3-yl)benzyl)-3-cyanopicolinamide], the IC50 lay in the range of 600 to 10000 nM.

For the compound `N#Cc1ccc(C(=O)N2CCN(Cc3ccc(-n4c(-c5cccnc5N)nc5cccnc54)cc3)CC2)cn1` [Example 102, 5-(4-(4-(2-(2-Aminopyridin-3-yl)-3H-imidazo[4,5-b]pyridin-3-yl)benzyl)piperazine-1-carbonyl)picolinonitrile], the IC50 fell in the range of 600 to 10000 nM.

Turning to `N#Cc1ccc(C(=O)NCc2ccc(-n3c(-c4cccnc4N)nc4cc(-c5ccccc5)cnc43)cc2)cn1` [Example 106, N-(4-(2-(2-Aminopyridin-3-yl)-6-phenyl-3H-imidazo[4,5-b]pyridin-3-yl)benzyl)-6-cyanonicotinamide], the IC50 fell in the range of 600 to 10000 nM.

Take `N#Cc1cc(C(=O)NC2CCN(Cc3ccc(-n4c(-c5cccnc5N)nc5cc(-c6ccccc6)cnc54)cc3)CC2)ccn1` [Example 107, N-(1-(4-(2-(2-Aminopyridin-3-yl)-6-phenyl-3H-imidazo[4,5-b]pyridin-3-yl)benzyl)piperidin-4-yl)-2-cyanoisonicotinamide]: the IC50 fell in the range of 600 to 10000 nM.

Take `N#Cc1cccc(C(=O)NCc2ccc(-n3c(-c4cccnc4N)nc4cccnc43)cc2)n1` [Example 108, N-(4-(2-(2-Aminopyridin-3-yl)-3H-imidazo[4,5-b]pyridin-3-yl)benzyl)-6-cyanopicolinamide]: the half-maximal inhibitory concentration (IC50) fell in the range of 600 to 10000 nM.

Turning to `N#Cc1cc(C(=O)N2CCN(Cc3ccc(-n4c(-c5cccnc5N)nc5cccnc54)cc3)CC2)ccn1` [Example 109, 4-(4-(4-(2-(2-Aminopyridin-3-yl)-3H-imidazo[4,5-b]pyridin-3-yl)benzyl)piperazine-1-carbonyl)picolinonitrile], the IC50 fell in the range of 600 to 10000 nM.
